Source: ChEMBL document CHEMBL3784933, “Synthesis and antitumor evaluation of trimethoxyanilides based on 4(3H)-quinazolinone scaffolds” (2016)

Key:
Format in all cases: functional
[1] = Cytotoxicity against human OVCAR3 cells assessed as growth inhibition at 10 uM after 48 hrs by SRB assay; conditions: OVCAR-3, 48 h, read-out: GI
SR = assay: Cytotoxicity against human SR cells assessed as growth inhibition at 10 uM after 48 hrs by SRB assay; conditions: read-out: GI
Malme-3M = assay: Cytotoxicity against human MALME-3M cells assessed as growth inhibition at 10 uM after 48 hrs by SRB assay; conditions: read-out: GI
SK-MEL-5 = assay: Cytotoxicity against human SK-MEL-5 cells assessed as growth inhibition at 10 uM after 48 hrs by SRB assay; conditions: SK-MEL-5, 48 h, read-out: GI
NCI-H226 = assay: Cytotoxicity against human NCI-H226 cells assessed as growth inhibition at 10 uM after 48 hrs by SRB assay; conditions: NCI-H226, 48 h, read-out: GI
KM12 = assay: Cytotoxicity against human KM12 cells assessed as growth inhibition at 10 uM after 48 hrs by SRB assay; conditions: KM12, 48 h, read-out: GI
M14 = assay: Cytotoxicity against human M14 cells assessed as growth inhibition at 10 uM after 48 hrs by SRB assay; conditions: M14, 48 h, read-out: GI
[2] = Cytotoxicity against human PC3 cells assessed as growth inhibition at 10 uM after 48 hrs by SRB assay; conditions: PC-3, 48 h, read-out: GI
NCI-H23 = assay: Cytotoxicity against human NCI-H23 cells assessed as growth inhibition at 10 uM after 48 hrs by SRB assay; conditions: NCI-H23, 48 h, read-out: GI
CCRF-CEM = assay: Cytotoxicity against human CCRF-CEM cells assessed as growth inhibition at 10 uM after 48 hrs by SRB assay; conditions: read-out: GI
SK-MEL-2 = assay: Cytotoxicity against human SK-MEL-2 cells assessed as growth inhibition at 10 uM after 48 hrs by SRB assay; conditions: SK-MEL-2, 48 h, read-out: GI
K562 = assay: Cytotoxicity against human K562 cells assessed as growth inhibition at 10 uM after 48 hrs by SRB assay; conditions: K562, 48 h, read-out: GI
[3] = Cytotoxicity against human RXF393 cells assessed as growth inhibition at 10 uM after 48 hrs by SRB assay; conditions: RXF 393, 48 h, read-out: GI
[4] = Cytotoxicity against human HCT15 cells assessed as growth inhibition at 10 uM after 48 hrs by SRB assay; conditions: HCT-15, 48 h, read-out: GI
[5] = Cytotoxicity against human LOXIMVI cells assessed as growth inhibition at 10 uM after 48 hrs by SRB assay; conditions: LOX IMVI, read-out: GI
MDA-MB-435 = assay: Cytotoxicity against human MDA-MB-435 cells assessed as growth inhibition at 10 uM after 48 hrs by SRB assay; conditions: MDA-MB-435, 48 h, read-out: GI
[6] = Cytotoxicity against human SNB19 cells assessed as growth inhibition at 10 uM after 48 hrs by SRB assay; conditions: SNB-19, 48 h, read-out: GI
[7] = Cytotoxicity against human OVCAR4 cells assessed as growth inhibition at 10 uM after 48 hrs by SRB assay; conditions: OVCAR-4, 48 h, read-out: GI
[8] = Cytotoxicity against human MOLT4 cells assessed as growth inhibition at 10 uM after 48 hrs by SRB assay; conditions: MOLT-4, 48 h, read-out: GI
[9] = Cytotoxicity against human RPMI8226 cells assessed as growth inhibition at 10 uM after 48 hrs by SRB assay; conditions: RPMI-8226, 48 h, read-out: GI
[10] = Cytotoxicity against human BT549 cells assessed as growth inhibition at 10 uM after 48 hrs by SRB assay; conditions: BT-549, 48 h, read-out: GI
[11] = Cytotoxicity against human Caki1 cells assessed as growth inhibition at 10 uM after 48 hrs by SRB assay; conditions: CAKI-1, 48 h, read-out: GI
A498 = assay: Cytotoxicity against human A498 cells assessed as growth inhibition at 10 uM after 48 hrs by SRB assay; conditions: A498, 48 h, read-out: GI
[12] = Cytotoxicity against human SNB75 cells assessed as growth inhibition at 10 uM after 48 hrs by SRB assay; conditions: SNB-75, 48 h, read-out: GI
786-0 = assay: Cytotoxicity against human 786-0 cells assessed as growth inhibition at 10 uM after 48 hrs by SRB assay; conditions: 786-0, 48 h, read-out: GI
A549 = assay: Cytotoxicity against human A549 cells assessed as growth inhibition at 10 uM after 48 hrs by SRB assay; conditions: A549, 48 h, read-out: GI
[13] = Cytotoxicity against human OVCAR8 cells assessed as growth inhibition at 10 uM after 48 hrs by SRB assay; conditions: OVCAR-8, 48 h, read-out: GI
[14] = Cytotoxicity against human NCI-ADR-RES cells assessed as growth inhibition at 10 uM after 48 hrs by SRB assay; conditions: read-out: GI
[15] = Cytotoxicity against human OVCAR1 cells assessed as growth inhibition at 10 uM after 48 hrs by SRB assay; conditions: OVCAR1, 48 h, read-out: GI
SK-MEL-28 = assay: Cytotoxicity against human SK-MEL-28 cells assessed as growth inhibition at 10 uM after 48 hrs by SRB assay; conditions: SK-MEL-28, 48 h, read-out: GI
NCI-H522 = assay: Cytotoxicity against human NCI-H522 cells assessed as growth inhibition at 10 uM after 48 hrs by SRB assay; conditions: NCI-H522, 48 h, read-out: GI
[16] = Cytotoxicity against human HOP92 cells assessed as growth inhibition at 10 uM after 48 hrs by SRB assay; conditions: HOP-92, 48 h, read-out: GI
[17] = Cytotoxicity against human HL-60(TB) cells assessed as growth inhibition at 10 uM after 48 hrs by SRB assay; conditions: HL-60, 48 h, read-out: GI
[18] = Cytotoxicity against human SW620 cells assessed as growth inhibition at 10 uM after 48 hrs by SRB assay; conditions: SW-620, 48 h, read-out: GI
MDA-MB-231 = assay: Cytotoxicity against human MDA-MB-231 cells assessed as growth inhibition at 10 uM after 48 hrs by SRB assay; conditions: MDA-MB-231, 48 h, read-out: GI
[19] = Cytotoxicity against human UACC62 cells assessed as growth inhibition at 10 uM after 48 hrs by SRB assay; conditions: UACC-62, 48 h, read-out: GI
ACHN = assay: Cytotoxicity against human ACHN cells assessed as growth inhibition at 10 uM after 48 hrs by SRB assay; conditions: read-out: GI
T47D = assay: Cytotoxicity against human T47D cells assessed as growth inhibition at 10 uM after 48 hrs by SRB assay; conditions: read-out: GI
[20] = Cytotoxicity against human HCT116 cells assessed as growth inhibition at 10 uM after 48 hrs by SRB assay; conditions: HCT-116, 48 h, read-out: GI
[21] = Cytotoxicity against human SF268 cells assessed as growth inhibition at 10 uM after 48 hrs by SRB assay; conditions: SF-268, 48 h, read-out: GI
[22] = Cytotoxicity against human UACC257 cells assessed as growth inhibition at 10 uM after 48 hrs by SRB assay; conditions: UACC-257, 48 h, read-out: GI
MDA-MB-468 = assay: Cytotoxicity against human MDA-MB-468 cells assessed as growth inhibition at 10 uM after 48 hrs by SRB assay; conditions: MDA-MB-468, 48 h, read-out: GI
[23] = Cytotoxicity against human UO31 cells assessed as growth inhibition at 10 uM after 48 hrs by SRB assay; conditions: UO-31, 48 h, read-out: GI

## COc1cc(NC(=O)CSc2nc3ccc(C)cc3c(=O)n2-c2ccccc2)cc(OC)c1OC
[1]
  inhibition of growth at 10 µM: 16%
SR
  inhibition of growth at 10 µM: 58%
Malme-3M
  inhibition of growth at 10 µM: 10%
SK-MEL-5
  inhibition of growth at 10 µM: 23%
NCI-H226
  inhibition of growth at 10 µM: 18%
KM12
  inhibition of growth at 10 µM: 25%
M14
  inhibition of growth at 10 µM: 21%
[2]
  inhibition of growth at 10 µM: 18%
NCI-H23
  inhibition of growth at 10 µM: 16%
CCRF-CEM
  inhibition of growth at 10 µM: 17%
SK-MEL-2
  inhibition of growth at 10 µM: 14%
K562
  inhibition of growth at 10 µM: 13%
[3]
  inhibition of growth at 10 µM: 14%
[4]
  inhibition of growth at 10 µM: 19%
[5]
  inhibition of growth at 10 µM: 25%
MDA-MB-435
  inhibition of growth at 10 µM: 53%
[6]
  inhibition of growth at 10 µM: 13%
[7]
  inhibition of growth at 10 µM: 32%
[8]
  inhibition of growth at 10 µM: 41%
[9]
  inhibition of growth at 10 µM: 24%
[10]
  inhibition of growth at 10 µM: 21%
[11]
  inhibition of growth at 10 µM: 12%
A498
  inhibition of growth at 10 µM: 38%
[12]
  inhibition of growth at 10 µM: 43%
786-0
  inhibition of growth at 10 µM: 11%
A549
  inhibition of growth at 10 µM: 17%
[13]
  inhibition of growth at 10 µM: 13%
[14]
  inhibition of growth at 10 µM: 25%
[15]
  inhibition of growth at 10 µM: 11%
SK-MEL-28
  inhibition of growth at 10 µM: 17%
NCI-H522
  inhibition of growth at 10 µM: 32%
[16]
  inhibition of growth at 10 µM: 51%
[17]
  inhibition of growth at 10 µM: 11%
[18]
  inhibition of growth at 10 µM: 13%
MDA-MB-231
  inhibition of growth at 10 µM: 23%
[19]
  inhibition of growth at 10 µM: 23%
ACHN
  inhibition of growth at 10 µM: 10%
T47D
  inhibition of growth at 10 µM: 19%
[20]
  inhibition of growth at 10 µM: 13%
[21]
  inhibition of growth at 10 µM: 14%
[22]
  inhibition of growth at 10 µM: 18%
MDA-MB-468
  inhibition of growth at 10 µM: 31%
[23]
  inhibition of growth at 10 µM: 49%
